From patent US10226451B2, “Substituted bicyclic compounds as bromodomain inhibitors” (ZENITH EPIGENETICS LTD, priority 2013, dated 2019) come the findings set out here.

Experiment [1] addresses T1, Brd4 bromodomain 1 (BRD4(1)) (Homo sapiens, UniProt O60885).
T1 construct: made in house; host or cells: E. coli BL21(DE3)
Briefly: Inhibition of tetra-acetylated histone H4 binding to Brd4 bromodomain 1 (HTRF/FRET). The conditions noted are these: tetra-acetylated histone H4 peptide, His-tagged bromodomain 200 nM, 2 h. As for the experimental part: Proteins were cloned and overexpressed with a N-terminal 6×His tag, then purified by nickel affinity followed by size exclusion chromatography. Briefly, E. coli BL21(DE3) cells were transformed with a recombinant expression vector encoding N-terminally Nickel affinity tagged bromodomains from Brd2, Brd3, Brd4. Cell cultures were incubated at 37° C. with shaking to the appropriate density and induced overnight with IPTG. The supernatant of lysed cells was loaded onto Ni-IDA column for purification. Eluted protein was pooled, concentrated and further purified by size exclusion chromatography. Fractions representing monomeric protein were pooled, concentrated, aliquoted, and frozen at −80° C. for use in subsequent experiments.
Binding of tetra-acetylated histone H4 and BET bromodomains was confirmed by a Homogenous Time Resolved Fluorescence Resonance Energy Transfer (HTRF®) method. N-terminally His-tagged bromodomains (200 nM) and biotinylated tetra-acetylated histone H4 peptide (25-50 nM, Millipore) were incubated in the presence of Europium Cryptate-labeled streptavidin (Cisbio Cat. #610SAKLB) and XL665-labeled monoclonal anti-His antibody (Cisbio Cat. #61HISXLB) in a white 96 well microtiter plate (Greiner). For inhibition assays, serially diluted test compound was added to these reactions in a 0.2% final concentration of DMSO. Duplicate wells were used for each concentration tested. Final buffer concentrations were 30 mM HEPES pH 7.4, 30 mM NaCl, 0.3 mM CHAPS, 20 mM phosphate pH 7.0, 320 mM KF, 0.08% BSA. After a 2 h incubation at room temperature, fluorescence was measured at 665 and 620 nm with a SynergyH4 plate reader (Biotek). The binding inhibitory activity was shown by a decrease in 665 nm relative to 620 nm fluorescence. IC50 values were determined from a dose response curve.
On the technique in general: Time-resolved FRET reads energy transfer from a long-lived donor to a nearby acceptor.

A further experiment relates to Human AML MV-4-11 cells. As to the kind of experiment: Inhibition of cell proliferation in MV4-11 cells (CellTiter Aqueous One). The note with it: 72 h. Type of experiment: cell-based. The method, then: In this example, cell titer in MV4-11 cells were quantitated to measure the inhibition of proliferation when treated with a compound of the present disclosure.
MV4-11 cells (CRL-9591) were plated at a density of 5×10^4 cells per well in 96 well flat bottom plates and treated with increasing concentrations of test compound or DMSO (0.1%) in IMDM media containing 10% FBS and penicillin/streptomycin. Triplicate wells were used for each concentration and a well containing only media was used as a control. Plates were incubated at 37° C., 5% CO2 for 72 h before adding 20 μL of the CellTiter Aqueous One Solution (Promega) to each well and incubated at 37° C., 5% CO2 for an additional 3-4 h. The absorbance was read at 490 nm in a spectrophotometer and the percentage of cell titer relative to DMSO-treated cells was calculated after correcting for background by subtracting the blank well's signal. IC50 values were calculated using the Graph Pad Prism software.

Experiment [2] concerns hIL-17 mRNA in human peripheral blood mononuclear cells. As to the kind of experiment: Inhibition of hIL-17 mRNA transcription in OKT3-stimulated PBMC. Type of experiment: cell-based. The conditions noted are these: OKT3 antibody, 6 h, read-out: IL-17 activity. As for the experimental part: In this example, hIL-17 mRNA in human peripheral blood mononuclear cells were quantitated to measure the transcriptional inhibition of hIL-17 when treated with a compound of the present disclosure.
Human peripheral blood mononuclear cells were plated (2.0×10^5 cells per well) in a 96-well plate in 45 μL OpTimizer T Cell expansion media (Life Technologies) containing 20 ng/ml IL-2 and penicillin/streptomycin. The cells were treated with increasing concentrations of the test compound or DMSO (0.1%), and incubated at 37° C., 5% CO2 for 1 h before addition of 10× stock OKT3 antibody at 10 ug/ml in media. Triplicate wells were used for each concentration. Cells were incubated at 37° C., 5% CO2 for 6 h before the cells were harvested. At time of harvest, cells were pelleted by centrifugation at 800 rpm for 5 min. Cells were harvested using the mRNA Catcher PLUS kit according to manufacturer's instructions. The eluted mRNA was then used in a one-step quantitative real-time PCR reaction, using components of the RNA UltraSense™ One-Step Kit (Life Technologies) together with Applied Biosystems TaqMan® primer-probes for hIL-17 and Cyclophilin. Real-time PCR plates were run on a ViiA™7 real time PCR machine (Applied Biosystems), data was analyzed, normalizing the Ct values for hIL-17 to an internal control, prior to determining the fold induction of each unknown sample, relative to the control.

For another experiment, the system named is hIL-6 mRNA in U937 cells. As to the kind of experiment: Inhibition of hIL-6 mRNA transcription in LPS-stimulated U937 cells. Format: cell-based. The conditions noted are these: Homo sapiens, U-937, PMA-differentiated U937 cells, LPS 1 ug/mL, 3 h, read-out: IL-6 activity. As for the experimental part:
In this example, hIL-6 mRNA in tissue culture cells were quantitated to measure the transcriptional inhibition of hIL-6 when treated with a compound of the present disclosure.
Human leukemic monocyte lymphoma U937 cells (CRL-1593.2) were plated at a density of 3.2×10^4 cells per well in a 96-well plate in 100 μL RPMI-1640 containing 10% FBS and penicillin/streptomycin, and differentiated into macrophages for 3 days in 60 ng/mL PMA ([…]) at 37° C. in 5% CO2 prior to the addition of compound. The cells were pretreated for 1 h with increasing concentrations of test compound in 0.1% DMSO prior to stimulation with 1 ug/mL lipopolysaccharide from Escherichia coli. Triplicate wells were used for each concentration. The cells were incubated at 37° C., 5% CO2 for 3 h before the cells were harvested. At time of harvest, media was removed and cells were rinsed in 200 μL PBS. Cells were harvested using the mRNA Catcher PLUS kit according to manufacturer's instructions. The eluted mRNA was then used in a one-step quantitative real-time PCR reaction using components of the RNA UltraSense™ One-Step Kit (Life Technologies) together with Applied Biosystems TaqMan® primer-probes for hIL-6 and Cyclophilin. Real-time PCR plates were run on a ViiA™7 real time PCR machine (Applied Biosystems), data was analyzed, normalizing the Ct values for hIL-6 to an internal control, prior to determining the fold expression of each sample, relative to the control.

In experiment [3] the test system is c-myc in Human AML MV4-11 cells. Briefly: Inhibition of c-MYC expression (mRNA, real-time PCR) in MV4-11 cells. Format: cell-based. The note with it: 3 h, mRNA by real-time PCR. As for the experimental part:
MV4-11 cells (CRL-9591) were plated at a density of 2.5×10^4 cells per well in 96 well U-bottom plates and treated with increasing concentrations of test compound or DMSO (0.1%) in IMDM media containing 10% FBS and penicillin/streptomycin, and incubated for 3 h at 37° C. Triplicate wells were used for each concentration. Cells were pelleted by centrifugation and harvested using the mRNA Catcher PLUS kit according to manufacturer's instructions. The eluted mRNA isolated was then used in a one-step quantitative real-time PCR reaction, using components of the RNA UltraSense™ One-Step Kit (Life Technologies) together with Applied Biosystems TaqMan® primer-probes for cMYC and Cyclophilin. Real-time PCR plates were run on a ViiA™7 real time PCR machine (Applied Biosystems), data was analyzed, normalizing the Ct values for hMYC to an internal control, prior to determining the fold expression of each sample, relative to the control.
Background: In qPCR the cycle at which signal appears reflects the starting amount.

A value given as a limit tells only on which side of the number the result lay.

With `Cc1noc(C)c1-c1cc(-c2c(C)noc2C)c2c(c1)[nH]c(=O)n2C` [Example Compound 2, 5,7-bis(3,5-dimethylisoxazol-4-yl)-1-methyl-1H-benzo[d]imidazol-2(3H)-one], the IC50 in experiment [1] was not above 300 nM; with Human AML MV-4-11 cells, 300 to 3000 nM; in experiment [2], not above 300 nM; with hIL-6 mRNA in U937 cells, not above 300 nM; in experiment [3], not above 300 nM.
As to `Cc1noc(C)c1-c1cc(-c2ccccc2C(F)(F)F)c2c(c1)[nH]c(=O)n2C` [Example Compound 5, 5-(3,5-dimethylisoxazol-4-yl)-1-methyl-7-(2-(trifluoromethyl)phenyl)-1H-benzo[d]imidazol-2(3H)-one], the IC50 in experiment [1] is not above 300 nM; in the experiment with Human AML MV-4-11 cells, not above 300 nM; in experiment [2] it was 300 to 3000 nM; in the experiment on hIL-6 mRNA in U937 cells, not above 300 nM; in experiment [3], not above 300 nM.
`Cc1cnsc1-c1cc(-c2c(C)noc2C)cc2[nH]c(=O)n(C)c12` [Example Compound 10, 5-(3,5-dimethylisoxazol-4-yl)-1-methyl-7-(4-methylisothiazol-5-yl)-1H-benzo[d]imidazol-2(3H)-one]: the IC50 (in experiment [1]; in the experiment with Human AML MV-4-11 cells; in experiment [2]; with hIL-6 mRNA in U937 cells; in experiment [3]) was not above 300 nM throughout.
As to `Cc1noc(C)c1-c1cc(-c2ccc(F)cc2C(F)(F)F)c2c(c1)[nH]c(=O)n2C` [Example Compound 11, 5-(3,5-dimethylisoxazol-4-yl)-7-(4-fluoro-2-(trifluoromethyl)phenyl)-1-methyl-1H-benzo[d]imidazol-2(3H)-one], the IC50 in experiment [1] is 300 to 3000 nM; with Human AML MV-4-11 cells, 300 to 3000 nM; in experiment [2], not above 300 nM; in the experiment on hIL-6 mRNA in U937 cells it was 300 to 3000 nM; in experiment [3], 300 to 3000 nM.
As for `COc1ccc(F)cc1-c1cc(-c2c(C)noc2C)cc2[nH]c(=O)n(C)c12` [Example Compound 18, 5-(3,5-dimethylisoxazol-4-yl)-7-(5-fluoro-2-methoxyphenyl)-1-methyl-1H-benzo[d]imidazol-2(3H)-one], the IC50 in experiment [1] was not above 300 nM; with Human AML MV-4-11 cells, 300 to 3000 nM; in experiment [2], not above 300 nM; in the experiment with hIL-6 mRNA in U937 cells it was not above 300 nM; in experiment [3], 300 to 3000 nM.
In the case of `Cc1nc(N)ccc1-c1cc(-c2c(C)noc2C)cc2[nH]c(=O)n(C)c12` [Example Compound 20, 7-(6-amino-2-methylpyridin-3-yl)-5-(3,5-dimethylisoxazol-4-yl)-1-methyl-1H-benzo[d]imidazol-2(3H)-one], the IC50 was not above 300 nM in experiment [1]; not above 300 nM in the experiment with Human AML MV-4-11 cells; 300 to 3000 nM in experiment [2]; not above 300 nM with hIL-6 mRNA in U937 cells; 300 to 3000 nM in experiment [3].
Take `Cc1n[nH]c(C)c1-c1cc(-c2c(C)noc2C)cc2[nH]c(=O)n(C)c12` [Example Compound 21, 7-(3,5-dimethyl-1H-pyrazol-4-yl)-5-(3,5-dimethylisoxazol-4-yl)-1-methyl-1H-benzo[d]imidazol-2(3H)-one]: the IC50 (in experiment [1]; in the experiment with Human AML MV-4-11 cells; in experiment [2]; in the experiment with hIL-6 mRNA in U937 cells; in experiment [3]) was not above 300 nM in each case.
As for `Cc1noc(C)c1-c1cc(-c2c(C)nn(C)c2C)c2[nH]c(=O)[nH]c2c1` [Example Compound 22, 6-(3,5-dimethylisoxazol-4-yl)-4-(1,3,5-trimethyl-1H-pyrazol-4-yl)-1H-benzo[d]imidazol-2(3H)-one], the IC50 (in experiment [1]; in the experiment with Human AML MV-4-11 cells; in experiment [2]; with hIL-6 mRNA in U937 cells; in experiment [3]) was not above 300 nM in each case.
Regarding `Cc1noc(CO)c1-c1cc(-c2c(C)nn(C)c2C)c2c(c1)[nH]c(=O)n2C` [Example Compound 28, 5-(5-(hydroxymethyl)-3-methylisoxazol-4-yl)-1-methyl-7-(1,3,5-trimethyl-1H-pyrazol-4-yl)-1H-benzo[d]imidazol-2(3H)-one], the IC50 in experiment [1] is not above 300 nM; with Human AML MV-4-11 cells, 300 to 3000 nM; in experiment [2], 300 to 3000 nM; in the experiment on hIL-6 mRNA in U937 cells, 300 to 3000 nM; in experiment [3] it was 300 to 3000 nM.
Consider `Cc1noc(C)c1-c1cc(-c2cccc(C(N)=O)c2C)c2c(c1)[nH]c(=O)n2C` [Example Compound 30, 3-(6-(3,5-dimethylisoxazol-4-yl)-3-methyl-2-oxo-2,3-dihydro-1H-benzo[d]imidazol-4-yl)-2-methylbenzamide], for which the IC50 (in experiment [1]; with Human AML MV-4-11 cells; in experiment [2]; in the experiment on hIL-6 mRNA in U937 cells; in experiment [3]) was not above 300 nM each time.
